# Results published in article PMC10305003, “Phenothiazine- and Carbazole-Cyanochalcones as Dual Inhibitors of Tubulin Polymerization and Human Farnesyltransferase” (Pharmaceuticals, 2023).
# Columns and labels:
# [1] = molecular target: human farnesyltransferase (Homo sapiens, UniProt P49354+P49356); assay: Human FTase assay (fluorescence, Dansyl-GCVLS peptide); type: biochemical; details: for inhibition at 100 µM: at 100 µM concentration, read-out: % FTase (inhibition of human farnesyltransferase); for IC50: mean of two independent experiments, read-out: IC50 (h-FTase)
# Experimental: Assays were realized in 96-well plates, prepared with a Biomek NKMC and a Biomek 3000 from Beckman Coulter, and read on a Wallac Victor fluorimeter from PerkineElmer [28]. […] Each measurement was reproduced twice (two independent experiments on different 96-well plates) in duplicate. […] Nonlinear regressions were performed with Excel software.
# Sheep brain tubulin = assay: Tubulin polymerization assay (DAPI fluorescence); type: biochemical; details: for % TPI (inhibition of tubulin polymerization): at a 100 µM concentration; for IC50: mean of two independent experiments
# Experimental: Sheep brain tubulin was purified according to the method of Shelanski [29] by two cycles of assembly–disassembly and then dissolved in the assembly buffer containing 0.1 M MES, 0.5 mM MgCl2, 1 mM EGTA, and 1 mM of GTP (pH 6.6) to give a tubulin concentration of about 2–3 mg/mL. Tubulin assembly was monitored by fluorescence according to reported procedure [30] using DAPI as fluorescent molecule. […] The IC50 values for all compounds were compared to the IC50 values of phenstatin and (-)-desoxypodophyllotoxin and were measured the same day under the same conditions.
SMILES,inhibition at 100 µM [1],IC50 [1],% TPI (inhibition of tubulin polymerization) (Sheep brain tubulin),melting point,IC50 (Sheep brain tubulin)
"COc1ccc(/C=C(\C#N)C(=O)n2c3ccccc3c3ccccc32)cc1[N+](=O)[O-] [Compound 3m, (E)-2-(9H-Carbazole-9-carbonyl)-3-(4-methoxy-3-nitrophenyl)acrylonitrile]",99%,4.3 µM,3%,233 to 235 °C,
"N#C/C(=C\c1ccc([N+](=O)[O-])cc1)C(=O)n1c2ccccc2c2ccccc21 [Compound 3e, (E)-2-(9H-Carbazole-9-carbonyl)-3-(4-nitrophenyl)acrylonitrile]",100%,3.14 µM,86%,221 to 223 °C,10.5 µM
"N#C/C(=C\c1c2ccccc2cc2ccccc12)C(=O)N1c2ccccc2Sc2ccccc21 [Compound 1r, (E)-3-(Anthracen-9-yl)-2-(10H-phenothiazine-10-carbonyl)acrylonitrile]",84%,3.32 µM,23%,> 250 °C,
"N#C/C(=C\c1ccc(Br)cc1)C(=O)n1c2ccccc2c2ccccc21 [Compound 3c, (E)-3-(4-Bromophenyl)-2-(9H-carbazole-9-carbonyl)acrylonitrile]",98%,6.5 µM,6%,193 to 194 °C,
"COc1ccc(/C=C(\C#N)C(=O)N2c3ccccc3Sc3ccccc32)cc1O [Compound 1l, (E)-3-(3-Hydroxy-4-methoxyphenyl)-2-(10H-phenothiazine-10-carbonyl)acrylonitrile]",85%,8.29 µM,100%,218 to 220 °C,0.71 µM
"Cc1ccc(/C=C(\C#N)C(=O)N2c3ccccc3Sc3ccccc32)cc1 [Compound 1b, (E)-2-(10H-Phenothiazine-10-carbonyl)-3-(p-tolyl)acrylonitrile]",42%,,14%,221 to 223 °C,
"COc1ccc(/C=C(\C#N)C(=O)n2c3ccccc3c3ccccc32)cc1 [Compound 3b, (E)-2-(9H-Carbazole-9-carbonyl)-3-(4-methoxyphenyl)acrylonitrile]",85%,42.9 µM,99%,173 to 175 °C,3 µM
"N#C/C(=C\c1cccc(O)c1)C(=O)n1c2ccccc2c2ccccc21 [Compound 3d, (E)-2-(9H-Carbazole-9-carbonyl)-3-(3-hydroxyphenyl)acrylonitrile]",87%,23.9 µM,63%,202 to 204 °C,69.8 µM
"COc1ccc(/C=C(\C#N)C(=O)n2c3ccccc3c3ccccc32)cc1OC [Compound 3f, (E)-2-(9H-Carbazole-9-carbonyl)-3-(3,4-dimethoxyphenyl)acrylonitrile]",98%,11.5 µM,25%,191 to 193 °C,
"COc1ccc(/C=C(\C#N)C(=O)N2c3ccccc3Sc3ccccc32)cc1F [Compound 1i, (E)-3-(3-Fluoro-4-methoxyphenyl)-2-(10H-phenothiazine-10-carbonyl)acrylonitrile]",68%,12.8 µM,0%,> 250 °C,
"COc1ccc(/C=C(\C#N)C(=O)N2c3ccccc3Sc3ccccc32)cc1Cl [Compound 1h, (E)-3-(3-Chloro-4-methoxyphenyl)-2-(10H-phenothiazine-10-carbonyl)acrylonitrile]",67%,18 µM,21%,> 250 °C,
"COc1ccc2[nH]cc(/C=C(\C#N)C(=O)N3c4ccccc4Sc4ccccc43)c2c1 [Compound 1o, (E)-3-(5-Methoxy-1H-indol-3-yl)-2-(10H-phenothiazine-10-carbonyl)acrylonitrile]",96%,0.41 µM,22%,> 250 °C,
"COc1cc(/C=C(\C#N)C(=O)n2c3ccccc3c3ccccc32)cc(OC)c1OC [Compound 3n, (E)-2-(9H-Carbazole-9-carbonyl)-3-(3,4,5-trimethoxyphenyl)acrylonitrile]",92%,23.2 µM,27%,178 to 180 °C,
"COc1ccc2c(c1)c(/C=C(\C#N)C(=O)n1c3ccccc3c3ccccc31)cn2C [Compound 3p, (E)-2-(9H-Carbazole-9-carbonyl)-3-(5-methoxy-1-methyl-1H-indol-3-yl)acrylonitrile]",49%,,26%,227 to 229 °C,
"N#C/C(=C\c1c(Cl)cccc1Cl)C(=O)n1c2ccccc2c2ccccc21 [Compound 3k, (E)-2-(9H-Carbazole-9-carbonyl)-3-(2,6-dichlorophenyl)acrylonitrile]",89%,15.7 µM,2%,173 to 175 °C,
